Results published in patent US20240418703A1, “CULTURE MEDIUM FOR PRIMARY OVARIAN CANCER CELLS, CULTURE METHOD AND APPLICATION THEREOF” (PRECEDO PHARMACEUTICALS CO., LTD, priority 2021, published 2024).
Where two headings read alike, the source gives them in different places.

Tests used:
[1] = test system: primary ovarian cancer cells; experiment: Effect of single additives in Basal Medium on proliferation of primary ovarian cancer cells (cell counting); assay type: cell-based, human; set-up: key: +: compared with the Basal Medium, the culture medium added with the additive(s) has the effect of promoting the proliferation of two cases of primary ovarian cancer cells isolated from ovarian cancer tissue; −: the culture medium added with the additive(s) has the effect of promoting the proliferation of one case of primary ovarian cancer cells isolated from ovarian cancer tissue; the culture medium added with the additive(s) has no significant effect on the proliferation of at least two cases of primary ovarian cancer cells isolated from ovarian cancer tissue
Procedure: First, a Basal Medium containing initial medium was prepared. The initial medium may be selected from the group consisting of DMEM/F12, DMEM, F12, or RPMI-1640 commonly used in the art. In this example, the formulation of the Basal Medium is: DMEM/F12 medium (purchased from Corning)+100 μg/mL Primocin (purchased from InvivoGen, 0.2% (v/v), commercial product has a concentration of 50 mg/mL). Different types of additives (see Table 1) were added to the Basal Medium to prepare culture mediums for primary ovarian cancer cells with different components.
Tissue samples (intraoperative) of ovarian cancer solid tumor were obtained from patients by professional medical practitioner of professional medical institutions, and all patients have signed the informed consent. Intraoperative samples having the size of 0.25 cm^3, endoscopic samples having the size of 0.025 cm^3 were stored and transported using commercial tissue preservation solution (manufacturer: Miltenyi Biotec).
Tissue digestion solution: 1640 medium (Corning, 10-040-CVR), collagenase II (2 mg/mL), collagenase IV (2 mg/mL), DNase (50 U/mL), hyaluronidase (0.75 mg/mL), calcium chloride (3.3 mM), BSA (10 mg/mL).
• 3.1. Tissue samples were transferred from the ultra-clean workbench to a culture dish, and the tissue with blood was removed. The tissue samples were rinsed twice with Basal Medium, and then were transferred to another culture dish and mechanically cut with a sterile scalpel into tissue blocks of 1×1×1 mm^3 in size. • 3.2. The cut intraoperative tissues were aspirated into a 15 mL centrifuge tube, to which 5 mL of Basal Medium was added, fully mixed, and then centrifuged at 1500 rpm for 4 minutes. • 3.3. The supernatant was discarded, and the resultant was added with 1:3 mixture of Basal Medium and tissue digestion solution (the amount of tissue digestion solution added was about 10 mL tissue digestion solution for 1 g of tumor tissue). The samples were marked with names and numbers, sealed with sealing film, and then digested in a shaker (Zhichu Instrument ZQLY-180N) at 37° C., 300 rpm. The completion of digestion was determined via observation every 30 minutes, based on the existing of visible particles or not. The digestion time was 4 hours. • 3.4. After the digestion was completed, undigested tissue mass was filtered out through a […] filter mash. The tissue mass on the filter mash was rinsed into the centrifuge tube with Basal Medium to reduce cell loss. The resultant was centrifuged at 25° C., 1500 rpm for 4 minutes. • 3.5. […] If there were blood cells, 8 mL blood cell lysate (purchased from Sigma) was added in the resultant and fully mixed, lysed at 4° C. for 20 minutes, with inverting and mixing once during the process. The resultant was centrifuged at 25° C., 1500 rpm for 4 minutes. • 3.6. The supernatant was discarded and 2 mL Basal Medium was added to resuspend the cells for reserve.
• 4.1. Microscopic observation: a small amount of resuspended cells were plated in a culture dish, and the density and morphology of cancer cells were observed under a microscope (CNOPTEC, BDS400); • 4.2. Viable cell counting: 12 μL of the resuspended cell suspension was fully mixed with 12 μL of trypan blue staining solution (Sangon Biotech (Shanghai) Co., Ltd.), and then 20 μL of the mixture was added into a cell counting plate (Countstar, specifications: 50 pieces/box).
The primary ovarian cancer cells isolated from 2 cases of ovarian cancer tissues (numbered L40 and LQQ) according to the above step (2) were resuspended in the culture medium in Table 1, respectively and the cell number was counted. The Basal Medium was mixed with matrigel (Corning®, 356231) in a 50:1 ratio on ice. 300 μL of the mixture was plated and incubated in a 5% CO2 incubator at 37° C. for 25-35 minutes, preferably 30 minutes. The supernatant was discarded. […]

[2] = test system: primary ovarian cancer cells; experiment: Effect of different concentrations of added factors on proliferation of primary ovarian cancer cells (ratio to Blank Control); assay type: cell-based, human
[3] = additive in Basal Medium at the final concentration, samples L40 and LQQ, 7-10 days of culture, versus Basal Medium
[4] = factor added to the medium lacking it, FIGS. 2A-2L
[5] = samples A26083, L56, L62, FIGS. 2A-2L

Cc1c[nH]c(-c2cnc(NCCNc3ccc(C#N)cn3)nc2-c2ccc(Cl)cc2Cl)n1 [CHIR99021, reference compound]
Level of promoting proliferation [1, 3]: ○

CN1C(=O)C(c2c(F)cccc2F)N(C)c2nc(Nc3ccc(S(N)(=O)=O)cc3)ncc21 (centres unmarked) [Compound 1, 4-((7-(2,6-Difluorophenyl)-5,8-dimethyl-6-oxo-5,6,7,8-tetrahydropteridin-2-yl)amino)benzsulfamide]
Level of promoting proliferation [1, 3]: +
concentration at which the cell proliferation effect is most significant [2, 4]: 5 µM
proliferation-promoting effect on primary ovarian cancer cells [2, 5]: significant proliferation-promoting effect

Cc1cccc(-c2nn(C(=S)Nc3ccccc3)cc2-c2ccnc3ccccc23)n1 [Compound A8301, A8301, reference compound]
Level of promoting proliferation [1, 3]: ○

C[C@@H](N)[C@H]1CC[C@H](C(=O)Nc2ccncc2)CC1 [Compound Y-27632, Y-27632, reference compound]
Level of promoting proliferation [1, 3]: +
concentration at which the cell proliferation effect is most significant [2, 4]: 5 µM
proliferation-promoting effect on primary ovarian cancer cells [2, 5]: significant proliferation-promoting effect

Oc1ccc(-c2nc(-c3ccncc3)c(-c3ccc(F)cc3)[nH]2)cc1 [SB202190, reference compound]
Level of promoting proliferation [1, 3]: ○

NC(=O)c1ccc(-c2nc(-c3ccc4c(c3)OCO4)c(-c3ccccn3)[nH]2)cc1 [SB431542, reference compound]
Level of promoting proliferation [1, 3]: ○

C[C@]12CCC(=O)C=C1CC[C@@H]1[C@@H]2[C@@H](O)C[C@@]2(C)[C@H]1CC[C@]2(O)C(=O)CO [hydrocortisone, reference compound]
Level of promoting proliferation [1, 3]: ○

NC(=O)c1cccnc1 [nicotinamide, reference compound]
Level of promoting proliferation [1, 3]: ○

CCCCC[C@H](O)/C=C/[C@H]1[C@H](O)CC(=O)[C@@H]1C/C=C\CCCC(=O)O [prostaglandin E2, reference compound]
Level of promoting proliferation [1, 3]: −
concentration at which the cell proliferation effect is most significant [2, 4]: 2.5 µM
proliferation-promoting effect on primary ovarian cancer cells [2, 5]: significant proliferation-promoting effect

CC(=O)C(=O)[O-].[Na+] [sodium pyruvate, reference compound]
Level of promoting proliferation [1, 3]: ○

basic fibroblast growth factor
Level of promoting proliferation [1, 3]: ○

cholera toxin
Level of promoting proliferation [1]: +
concentration at which the cell proliferation effect is most significant [2]: 0.1 µg/mL
more preferable amount according to the results of this example [2]: 0.05 to 0.2 µg/mL
preferable amount according to the results of this example [2]: 50 to 800 ng/mL
proliferation-promoting effect on primary ovarian cancer cells [2]: significant proliferation-promoting effect

epidermal growth factor
Level of promoting proliferation [1, 3]: −
preferable amount according to the results of this example ([2]; preferably, FIGS. 2A-2L): 2.5 to 40 ng/mL
proliferation-promoting effect on primary ovarian cancer cells [2, 5]: significant proliferation-promoting effect

hepatocyte growth factor
Level of promoting proliferation [1, 3]: ○

insulin
Level of promoting proliferation [1, 3]: +
concentration at which the cell proliferation effect is most significant [2, 4]: 9 µg/mL
more preferable amount according to the results of this example ([2]; more preferably, FIGS. 2A-2L): 3 to 9 µg/mL
proliferation-promoting effect on primary ovarian cancer cells [2, 5]: significant proliferation-promoting effect

insulin-like growth factor-1
Level of promoting proliferation [1, 3]: +
concentration at which the cell proliferation effect is most significant [2, 4]: 0.05 µg/mL
preferable amount according to the results of this example ([2]; preferably, FIGS. 2A-2L): 25 to 100 ng/mL
proliferation-promoting effect on primary ovarian cancer cells [2, 5]: significant proliferation-promoting effect

neuregulin −1
Level of promoting proliferation [1, 3]: ○

vitamin E [reference compound]
Level of promoting proliferation [1, 3]: ○

B1: fibroblast growth factors 7 (protein, UniProt P21781 32-194, looked up)
Fibroblast growth factor 7: CNDMTPEQMATNVNCSSPERHTRSYDYMEGGDIRVRRLFCRTQWYLRIDKRGKVKGTQEMKNNYNIMEIRTVAVGIVAIKGVESEFYLAMNKEGKLYAKKECNEDCNFKELILENHYNTYASAKWTHNGGEMFVALNQKGIPVRGKKTKKEQKTAHFLPMAIT
notes: medium additive, supplier R&D
Level of promoting proliferation [1, 3]: ○

B2: human fibroblast growth factor −10 (protein, UniProt O15520 38-208, looked up)
Fibroblast growth factor 10: QALGQDMVSPEATNSSSSSFSSPSSAGRHVRSYNHLQGDVRWRKLFSFTKYFLKIEKNGKVSGTKKENCPYSILEITSVEIGVVAVKAINSNYYLAMNKKGKLYGSKEFNNDCKLKERIEENGYNTYASFNWQHNGRQMYVALNGKGAPRRGQKTRRKNTSAHFLPMVVHS
notes: medium additive, supplier sino biological
Level of promoting proliferation [1, 3]: ○

B3: R-spondin1 (protein, UniProt Q2MKA7 21-263, looked up)
R-spondin-1: SRGIKGKRQRRISAEGSQACAKGCELCSEVNGCLKCSPKLFILLERNDIRQVGVCLPSCPPGYFDARNPDMNKCIKCKIEHCEACFSHNFCTKCKEGLYLHKGRCYPACPEGSSAANGTMECSSPAQCEMSEWSPWGPCSKKQQLCGFRRGSEERTRRVLHAPVGDHAACSDTKETRRCTVRRVPCPEGQKRRKGGQGRRENANRNLARKESKEAGAGSRRRKGQQQQQQQGTVGPLTSAGPA
notes: medium additive, supplier R&D
Level of promoting proliferation [1, 3]: ○

B4: amphiregulin (protein, UniProt P15514 101-187, looked up)
Amphiregulin: SVRVEQVVKPPQNKTESENTSDKPKRKKKGGKNGKNRRNRKKKNPCNAEFQNFCIHGECKYIEHLEAVTCKCQQEYFGERCGEKSMK
modifications: Amphiregulin
notes: medium additive, supplier MCE
Level of promoting proliferation [1, 3]: +
concentration at which the cell proliferation effect is most significant [2, 4]: 0.003 µg/mL
preferable amount according to the results of this example ([2]; preferably, FIGS. 2A-2L): 1 to 81 ng/mL
proliferation-promoting effect on primary ovarian cancer cells [2, 5]: significant proliferation-promoting effect

B5: noggin (protein, UniProt Q13253 28-232, looked up)
Noggin: QHYLHIRPAPSDNLPLVDLIEHPDPIFDPKEKDLNETLLRSLLGGHYDPGFMATSPPEDRPGGGGGAAGGAEDLAELDQLLRQRPSGAMPSEIKGLEFSEGLAQGKKQRLSKKLRRKLQMWLWSQTFCPVLYAWNDLGSRFWPRYVKVGSCFSKRSCSVPEGMVCKPSKSVHLTVLRWRCQRRGGQRCGWIPIQYPIISECKCSC
notes: medium additive, supplier R&D
Level of promoting proliferation [1, 3]: ○
